According to patent US8221997B2, “Microorganism and method for producing carotenoid using the same” (Tosoh Corporation, priority 2005, dated 2012):

Test system: Paracoccus sp. strain TSN18E7
Assay: Evaluation of growth ability against metabolic analogue β-ionone (colony formation on plate culture medium)
Assay type: cell-based
Details: plate culture medium of Table 2 with β-ionone in DMSO at final 0.01, 1, 2, 5 and 10 mM; 5 days at 25° C.; colonies visually counted
Experimental: bacterium Paracoccus sp. strain TSN18E7 was inoculated in 5 mL of liquid medium shown in Table 1, and cultured for one (1) day at 25° C. under shaking and 150 rpm. The culture solution was diluted in a culture medium shown in Table 1, and spread on a plate culture medium having a composition shown in Table 2 supplemented with β-ionone (Aldrich) dissolved in dimethylsulfoxide (DMSO). β-ionone was supplemented at final concentrations of 0.01, 1, 2, 5 and 10 mM. Then the plate culture medium on which strain TSN18E7 was spread was cultured for 5 days at 25° C. Appearing colonies were visually counted and evaluated for growth ability of strain TSN18E7 for each concentration of β-ionone. The strain TSN18E7 inhibited growth in the presence of β-ionone of 1 mM or more, and formation of colony was not observed. We concluded that for separation of β-ionone resistant strain, suitable β-ionone concentration in culture is 1 mM in final concentration.

For `CC(=O)/C=C/C1=C(C)CCCC1(C)C` [β-ionone], the “β-ionone concentration at which growth of the strain is inhibited and formation of colony is not observed” value was no less than 1 mM.
